Source: patent US20010034039A1, “Bioluminescent organism for detecting toxic substances” (priority 2000, published 2001)
≈ marks a conversion by molar mass, not a printed value. Where two headings read alike, the source gives them in different places.

How the values were obtained:
[1] = system: YH9-RC deposited under KCTC 0730BP; assay: microbe, parasite or virus in culture; type: cell-based; settings: Janthinobacterium lividum, read-out: EC50 (decrease luminescence by 50%)
Experimental: Toxicity tests for a variety of substances described in the following Table 2 were conducted using YH9-RC deposited under KCTC 0730BP obtained in the Example 1 to calculate EC50 (Effective concentration 50: the effective concentration of tested organism that decrease luminescence by 50%). It was compared with the EC50 value using oceanic luminescent bacterium (Vibrio sp. Isolate) that was most commonly used in a conventional toxicity test. First, the YH9-RC colony was cultured in an R2A broth containing 5 μg/ml of tetracycline (liquid culture medium containing Bacto yeast extract 0.5 wt %, Bacto proteose peptone No. 3 0.5 wt %, Bacto casamino acids 0.5 wt %, Bacto dextrose 0.5 wt %, soluble starch 0.5 wt %, sodium pyruvate 0.5 wt %, potassium phosphate dibasic 0.5 wt %, and magnesium sulfate 0.5 wt %) for 18 hours or more, and then it was sub-cultured in an R2A broth for another 7 to 8 hours, and the aliquot of the fresh culture was used in the toxicity test. In addition, 80 μl of the cell culture liquid, 80 μl of 0.03 wt % aldehyde aqueous solution, and 40 μl of a toxic sample diluted to various concentrations were mixed in a test tube of a luminometer, […]

[2] = system: oceanic luminescent bacterium (Vibrio sp. Isolate); assay: microbe, parasite or virus in culture; type: cell-based; settings: read-out: EC50 (decrease luminescence by 50%)
YH-9 = settings: YH9 strain
Source text: Then, the YH9 was transformed, and luminescent genes were introduced therein.

Row | Structure (SMILES) | EC50 ([1]; 5 min) | EC50 ([1]; 10 min) | EC50 ([1]; 0.25 h) | EC50 ([2]; 5 min) | EC50 ([2]; 10 min) | EC50 ([2]; 0.25 h) | MIC for phenol among various Gram-negative isolates (YH-9) | EC50 ([1]; 5 min, YH9-RC, 5 minutes) | EC50 ([1]; 10 min, YH9-RC, 10 minutes) | EC50 ([1]; 0.25 h, YH9-RC, 15 minutes) | EC50 ([2]; 0.25 h, 15 minutes)
1 | c1ccccc1 [Benzene] | 75.2 µg/mL (≈ 962 µM) | 50.9 µg/mL (≈ 652 µM) | 35.1 µg/mL (≈ 449 µM) | 478 µg/mL (≈ 6120 µM) | 607 µg/mL (≈ 7770 µM) | 747 µg/mL (≈ 9570 µM) |  |  |  |  | 
2 | Oc1ccccc1 [Phenol] | 26.5 µg/mL (≈ 282 µM) | 12 µg/mL (≈ 128 µM) | 12.7 µg/mL (≈ 135 µM) | 116 µg/mL (≈ 1230 µM) | 105 µg/mL (≈ 1120 µM) | 63.1 µg/mL (≈ 670 µM) | lowest MIC |  |  |  | 
3 | Cc1ccccc1 [Toluene] |  |  |  | 87.1 µg/mL (≈ 945 µM) | 120 µg/mL (≈ 1300 µM) |  |  | 5.61 µg/mL (≈ 60.9 µM) | 5.65 µg/mL (≈ 61.3 µM) | 6.3 µg/mL (≈ 68.4 µM) | 142 µg/mL (≈ 1540 µM)
4 | Cc1ccc(C)cc1 [p-xylene] |  |  |  | 27.4 µg/mL (≈ 258 µM) | 105 µg/mL (≈ 990 µM) |  |  | 45.3 µg/mL (≈ 427 µM) | 37.7 µg/mL (≈ 355 µM) | 49.8 µg/mL (≈ 469 µM) | 63.1 µg/mL (≈ 594 µM)
